Measured values published in article PMC9803904, “Selective somatostatin receptor 5 inhibition improves hepatic insulin sensitivity” (Pharmacology Research & Perspectives, 2022).
pIC50: −log10 of the molar value.

Assays:
[1] = molecular target: human SSTR5 (somatostatin receptor 5) (Homo sapiens, UniProt P35346); test: HTRF cAMP antagonist assay in CHO cells stably expressing human SSTR5, stimulated with SST28 and forskolin; type: cell-based
[2] = molecular target: T1, mouse SSTR5 (somatostatin receptor 5) (Mus musculus, UniProt O08858); test: HTRF cAMP antagonist assay in CHO cells stably expressing mouse SSTR5, stimulated with SST28 and forskolin; type: cell-based
T1 sequence (O08858 1-362): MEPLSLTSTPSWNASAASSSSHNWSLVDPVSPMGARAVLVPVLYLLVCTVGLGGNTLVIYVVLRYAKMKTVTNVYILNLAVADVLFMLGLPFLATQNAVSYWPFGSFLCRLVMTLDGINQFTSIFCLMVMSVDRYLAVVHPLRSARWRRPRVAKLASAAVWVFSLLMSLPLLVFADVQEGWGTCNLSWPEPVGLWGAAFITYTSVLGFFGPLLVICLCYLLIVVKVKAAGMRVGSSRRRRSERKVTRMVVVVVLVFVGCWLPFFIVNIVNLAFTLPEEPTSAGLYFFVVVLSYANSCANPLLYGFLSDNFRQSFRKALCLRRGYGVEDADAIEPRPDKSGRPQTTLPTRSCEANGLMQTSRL

Sequence of human SSTR5 (somatostatin receptor 5) (P35346 whole entry): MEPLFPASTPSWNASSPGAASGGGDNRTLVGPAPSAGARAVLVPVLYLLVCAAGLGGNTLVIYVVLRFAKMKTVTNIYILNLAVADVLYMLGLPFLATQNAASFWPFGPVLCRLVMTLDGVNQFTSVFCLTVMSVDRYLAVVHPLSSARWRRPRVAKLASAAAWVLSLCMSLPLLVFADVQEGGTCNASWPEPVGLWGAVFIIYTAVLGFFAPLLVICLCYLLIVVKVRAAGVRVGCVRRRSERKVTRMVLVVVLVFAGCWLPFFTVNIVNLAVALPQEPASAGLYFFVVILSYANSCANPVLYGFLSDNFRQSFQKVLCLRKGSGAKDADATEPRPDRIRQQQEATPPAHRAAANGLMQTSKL

SMILES: Cc1c(C(=O)O)ccn(C2CCN(Cc3cc(C4CC4)c(-c4ccc(F)cc4)c(F)c3OC(C)C)CC2)c1=O [compound-1]
- pIC50 [1]: 8.01
- pIC50 [2]: 7.51
